We go through 23 compounds from US7514452B2, “2-furancarboxylic acid hydrazides and pharmaceutical compositions containing the same” (Dainippon Pharmaceutical Co., Ltd, priority 2002, dated 2009).

Series [1] addresses glucagon receptor (Mus musculus, UniProt Q61606). In words: Experiment for glucagon binding inhibition, mouse hepatic membrane (125I-glucagon). The following applies: male ddY mouse hepatic membrane, 125I-glucagon 50 pM, 25° C. for 30 minutes; read-out: Glucagon binding inhibitory activity IC50 (nM) Mouse. The gist of the method: (§1)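 Liver membranes from male SD rats or male ddY mice were incubated with 125I-glucagon and compound for 30 min at 25 °C. Bound radioactivity was collected on filters washed with pH 7.2 Tris-HCl and counted by γ counter, in duplicate. IC50 was taken from a pseudo Hill plot.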

The target in series [2] is glucagon receptor (Rattus norvegicus, UniProt P30082). In words: Experiment for glucagon binding inhibition, rat hepatic membrane (125I-glucagon). To be noted: male SD rat hepatic membrane, 125I-glucagon 50 pM, 25° C. for 30 minutes; read-out: Glucagon binding inhibitory activity IC50 (nM) Rat. The gist of the method:
as §1

glucagon receptor (Rattus norvegicus, UniProt P30082), sequence (P30082 27-485): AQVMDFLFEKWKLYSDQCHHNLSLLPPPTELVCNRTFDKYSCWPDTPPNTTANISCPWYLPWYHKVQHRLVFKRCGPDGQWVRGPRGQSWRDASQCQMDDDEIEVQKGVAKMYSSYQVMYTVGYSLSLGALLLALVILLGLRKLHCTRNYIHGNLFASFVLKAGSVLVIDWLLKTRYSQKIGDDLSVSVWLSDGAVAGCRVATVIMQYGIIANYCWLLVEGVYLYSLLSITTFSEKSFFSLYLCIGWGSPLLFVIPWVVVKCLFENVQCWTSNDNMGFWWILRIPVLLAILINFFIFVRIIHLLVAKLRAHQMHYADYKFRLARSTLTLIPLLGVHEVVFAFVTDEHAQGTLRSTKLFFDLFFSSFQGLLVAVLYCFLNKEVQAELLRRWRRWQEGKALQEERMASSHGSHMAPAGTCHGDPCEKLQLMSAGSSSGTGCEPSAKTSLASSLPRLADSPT
glucagon receptor (Mus musculus, UniProt Q61606), sequence (Q61606 27-485): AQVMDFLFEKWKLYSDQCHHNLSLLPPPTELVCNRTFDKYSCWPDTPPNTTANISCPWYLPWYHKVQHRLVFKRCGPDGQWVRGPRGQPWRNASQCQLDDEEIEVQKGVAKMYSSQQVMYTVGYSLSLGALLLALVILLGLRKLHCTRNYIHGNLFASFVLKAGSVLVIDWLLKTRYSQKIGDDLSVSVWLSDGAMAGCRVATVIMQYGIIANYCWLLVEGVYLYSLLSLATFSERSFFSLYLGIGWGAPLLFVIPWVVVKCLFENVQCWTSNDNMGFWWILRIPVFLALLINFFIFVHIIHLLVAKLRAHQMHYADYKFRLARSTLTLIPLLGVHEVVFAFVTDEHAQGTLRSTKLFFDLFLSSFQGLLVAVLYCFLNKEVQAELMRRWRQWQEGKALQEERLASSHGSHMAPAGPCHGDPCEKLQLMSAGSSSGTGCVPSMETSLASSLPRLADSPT

Compound `O=C(NNC(=O)c1occc1-c1ccccc1)c1ccc(O)c(C(F)(F)F)c1` [Example 193, 3-phenyl-2-furancarboxylic acid 2-(4-hydroxy-3-trifluoromethylbenzoyl)hydrazide] displayed a melting point of 117 to 121 °C. Further, the concentration for half-maximal inhibition (IC50) on glucagon receptor [1] worked out at 350 nM. In addition, the IC50 at glucagon receptor [2] came to 330 nM.

The compound `O=C(NNC(=O)c1occc1-c1cccc(OCc2ccc3ccccc3c2)c1)c1ccc(O)c([N+](=O)[O-])c1` [Example 204] came in with a melting point of 198 to 199 °C. The IC50 at glucagon receptor [1] came to 5.4 nM. Besides, the IC50 at glucagon receptor [2] was 3.6 nM.

`Cn1ccc2cc(-c3ccoc3C(=O)NNC(=O)c3ccc(O)c([N+](=O)[O-])c3)ccc21` [Example 208] came in with a melting point of 185 to 187 °C. At glucagon receptor [1], the IC50 is 270 nM. Moreover, the IC50 on glucagon receptor [2] stood at 290 nM.

On to `O=C(NNC(=O)c1occc1-c1cccc(Cc2ccccc2Cl)c1)c1ccc(O)c([N+](=O)[O-])c1` [Example 225], for which the melting point is 97 to 99 °C. For the same compound, the IC50 on glucagon receptor [1] was 68 nM. The IC50 at glucagon receptor [2] amounted to 11 nM.

Consider `Cc1ccccc1Cc1cccc(-c2ccoc2C(=O)NNC(=O)c2ccc(O)c([N+](=O)[O-])c2)c1` [Example 229], for which the melting point lay in the range of 135 to 138 °C. Further, the 50% inhibitory concentration (IC50) on glucagon receptor [1] worked out at 58 nM. The IC50 on glucagon receptor [2] amounted to 28 nM.

For the compound `CS(=O)(=O)c1ccc(COc2cccc(-c3ccoc3C(=O)NNC(=O)c3ccc(O)c(C#N)c3)c2)cc1` [Example 136, 3-[3-(4-methylsulfonylbenzyloxy)phenyl]-2-furancarboxylic acid 2-(3-cyano-4-hydroxybenzoyl)hydrazide], the melting point lay in the range of 235 to 237 °C. Moreover, the IC50 on glucagon receptor [1] came to 48 nM. Moreover, the IC50 on glucagon receptor [2] amounted to 96 nM.

In turn, `CCc1ccc(-c2ccoc2C(=O)NNC(=O)c2ccc(O)c([N+](=O)[O-])c2)cc1` [Example 156, 3-(4-Ethylphenyl)-2-furancarboxylic acid 2-(4-hydroxy-3-nitrobenzoyl)hydrazide] registered a melting point of 189 to 191 °C. Further, the IC50 at glucagon receptor [1] amounted to 45 nM. Besides, the IC50 at glucagon receptor [2] amounted to 44 nM.

`CS(=O)(=O)c1ccc(COc2cccc(-c3ccoc3C(=O)NNC(=O)c3ccc(O)c([N+](=O)[O-])c3)c2)cc1` [Example 120, 3-[3-(4-Methylsulfonylbenzyloxy)phenyl]-2-furancarboxylic acid 2-(4-hydroxy-3-nitrobenzoyl)hydrazide] had a melting point of 114 to 117 °C. In addition, the IC50 at glucagon receptor [1] worked out at 27 nM. For the same compound, the IC50 on glucagon receptor [2] amounted to 37 nM.

On to `CCCCCCc1cccc(-c2ccoc2C(=O)NNC(=O)c2ccc(O)c([N+](=O)[O-])c2)c1` [Example 188, 3-(3-Hexylphenyl)-2-furancarboxylic acid 2-(4-hydroxy-3-nitrobenzoyl)hydrazide], for which the melting point is 87 to 89 °C. Further, the IC50 at glucagon receptor [1] was determined as 28 nM. Also, the IC50 at glucagon receptor [2] worked out at 26 nM.

The compound `O=C(NNC(=O)c1occc1-c1cccc(OCCc2ccccc2)c1)c1ccc(O)c([N+](=O)[O-])c1` [Example 209, 3-(3-phenethyloxyphenyl)-2-furancarboxylic acid 2-(4-hydroxy-3-nitrobenzoyl)hydrazide] yielded a melting point of 90 to 94 °C. Further, the 50% inhibitory concentration (IC50) on glucagon receptor [1] stood at 35 nM. The IC50 at glucagon receptor [2] was determined as 20 nM.

The compound `CCCCOc1cccc(-c2ccoc2C(=O)NNC(=O)c2ccc(O)c([N+](=O)[O-])c2)c1` [Example 181, 3-(3-Butoxyphenyl)-2-furancarboxylic acid 2-(4-hydroxy-3-nitrobenzoyl)hydrazide] displayed a melting point of 135 to 138 °C. Also, the IC50 at glucagon receptor [1] is 62 nM. On glucagon receptor [2], the concentration for half-maximal inhibition (IC50) amounted to 30 nM.

`CCCc1ccc(-c2ccoc2C(=O)NNC(=O)c2ccc(O)c([N+](=O)[O-])c2)cc1` [Example 160, 3-(4-Propylphenyl)-2-furancarboxylic acid 2-(4-hydroxy-3-nitrobenzoyl)hydrazide] displayed a melting point of 174 to 176 °C. Also, the half-inhibitory concentration (IC50) at glucagon receptor [1] stood at 3.4 nM. The concentration for half-maximal inhibition (IC50) at glucagon receptor [2] amounted to 2.9 nM.

In the case of `CC(c1ccccc1)c1cccc(-c2ccoc2C(=O)NNC(=O)c2ccc(O)c([N+](=O)[O-])c2)c1` (stereo not drawn) [Example 230], the melting point lay in the range of 147 to 149 °C. Besides, the IC50 at glucagon receptor [1] was determined as 120 nM. Besides, on glucagon receptor [2], the IC50 was 33 nM.

Compound `Cc1ccc(COc2ccc(-c3ccoc3C(=O)NNC(=O)c3ccc(O)c([N+](=O)[O-])c3)cc2)cc1` [Example 211] gave a melting point of 184 to 185 °C. Also, the IC50 on glucagon receptor [1] turned out to be 25 nM. Besides, at glucagon receptor [2], the IC50 came to 8.5 nM.

On to `COc1ccc(COc2cccc(-c3ccoc3C(=O)NNC(=O)c3ccc(O)c([N+](=O)[O-])c3)c2)cn1` [Example 164, 3-[3-(2-Methoxy-5-pyridylmethyloxy)phenyl]-2-furancarboxylic acid 2-(4-hydroxy-3-nitrobenzoyl)hydrazide], for which the melting point was in the range of 180 to 181 °C. The IC50 on glucagon receptor [1] stood at 6.5 nM. Also, the IC50 at glucagon receptor [2] was 3.9 nM.

Compound `Cc1ccc(COc2cccc(-c3ccoc3C(=O)NNC(=O)c3ccc(O)c([N+](=O)[O-])c3)c2)cc1C` [Example 129, 3-[3-(3,4-Dimethylbenzyloxy)phenyl]-2-furancarboxylic acid 2-(4-hydroxy-3-nitrobenzoyl)hydrazide] registered a melting point of 157 to 162 °C. For the same compound, at glucagon receptor [1], the half-inhibitory concentration (IC50) came to 6.1 nM. In addition, at glucagon receptor [2], the IC50 was 5.2 nM.

In the case of `N#Cc1cc(C(=O)NNC(=O)c2occ(-c3ccc(F)cc3)c2-c2ccc(F)cc2)ccc1O` [Example 45, 3,4-Bis(4-fluorophenyl)-2-furancarboxylic acid 2-(3-cyano-4-hydroxybenzoyl)hydrazide], the melting point fell in the range of 243 to 245 °C. The IC50 on glucagon receptor [1] was found to be 120 nM. The IC50 on glucagon receptor [2] was 220 nM.

Compound `O=C(NNC(=O)c1occc1-c1ccc(OCc2ccccc2)cc1)c1ccc(O)c([N+](=O)[O-])c1` [Example 245] returned a melting point of 163 to 164 °C. For the same compound, on glucagon receptor [1], the IC50 is 64 nM. In addition, the IC50 at glucagon receptor [2] is 29 nM.

Regarding `Cc1cccc(C)c1COc1cccc(-c2ccoc2C(=O)NNC(=O)c2ccc(O)c([N+](=O)[O-])c2)c1` [Example 224], the melting point was in the range of 100 to 101 °C. The IC50 on glucagon receptor [1] was 48 nM. For the same compound, the half-inhibitory concentration (IC50) on glucagon receptor [2] is 27 nM.

In the case of `CCCCCOc1ccc(-c2ccoc2C(=O)NNC(=O)c2ccc(O)c([N+](=O)[O-])c2)cc1` [Example 159, 3-(4-Pentyloxyphenyl)-2-furancarboxylic acid 2-(4-hydroxy-3-nitrobenzoyl)hydrazide], the melting point fell in the range of 156 to 157 °C. In addition, the IC50 at glucagon receptor [1] worked out at 60 nM. Further, the IC50 at glucagon receptor [2] was found to be 31 nM.

In turn, `Cc1ccccc1COc1ccc(-c2ccoc2C(=O)NNC(=O)c2ccc(O)c([N+](=O)[O-])c2)cc1` [Example 213] gave a melting point of 177 to 179 °C. Further, at glucagon receptor [1], the 50% inhibitory concentration (IC50) stood at 80 nM. For the same compound, the IC50 at glucagon receptor [2] came out at 35 nM.

The compound `COc1ccc(COc2cccc(-c3ccoc3C(=O)NNC(=O)c3ccc(O)c([N+](=O)[O-])c3)c2)cc1` [Example 176, 3-[3-(4-Methoxybenzyloxy)phenyl]-2-furancarboxylic acid 2-(4-hydroxy-3-nitrobenzoyl)hydrazide] showed a melting point of 172 to 174 °C. For the same compound, the IC50 on glucagon receptor [1] came out at 5.2 nM. The half-maximal inhibitory concentration (IC50) at glucagon receptor [2] stood at 6.4 nM.

In turn, `C=CCOc1cccc(-c2ccoc2C(=O)NNC(=O)c2ccc(O)c([N+](=O)[O-])c2)c1` [Example 199, 3-[3-(2-Allyloxy)phenyl]-2-furancarboxylic acid 2-(4-hydroxy-3-nitrobenzoyl)hydrazide] displayed a melting point of 126 to 131 °C. Also, on glucagon receptor [1], the IC50 was found to be 75 nM. For the same compound, the IC50 on glucagon receptor [2] stood at 99 nM.
